Test results taken from PMC7070036, “An amber obligate active site-directed ligand evolution technique for phage display” (Nature Communications, 2020).
“And” between values parts separate entries of the source, which are not always exact repeats. Equal entries are not always repeated. Starred links: 1 amine or outer side, 2 acyl side, 3 side chain; linkers in the order of their positions; H or OH if unused. Non-standard residues stand in square brackets, D forms with d. Residues, ends and D or L forms follow the SMILES beside them. Lys(thiomyristoyl) = CCCCCCCCCCCCCC(=S)NCCCC[C@H](N)C(=O)O; X1 = CCCC(=S)NCCCC[C@H](N[*:1])C(=O)[*:2]; Abu = CC[C@H](N)C(=O)O

Assays:
[1] = biological target: T1, SIRT2 (Homo sapiens, UniProt Q8IXJ6); test: Continuous fluorogenic sirtuin inhibition assay, SIRT2 (tBuK peptides, TB); assay type: biochemical; conditions: for IC50: 0.25 µM SIRT2, 1 mM NAD+, 5 µM fluorogenic substrate, 15 min preincubation, n = 2, read-out: IC50; for activity at 0.0064 µM / %Activity, SIRT2 / activity at 0.032 µM / activity at 0.5 µM / activity at 1 µM / activity at 2 µM / activity at 50 µM / activity at 4 µM: single trials
T1 sequence (Q8IXJ6 1-389): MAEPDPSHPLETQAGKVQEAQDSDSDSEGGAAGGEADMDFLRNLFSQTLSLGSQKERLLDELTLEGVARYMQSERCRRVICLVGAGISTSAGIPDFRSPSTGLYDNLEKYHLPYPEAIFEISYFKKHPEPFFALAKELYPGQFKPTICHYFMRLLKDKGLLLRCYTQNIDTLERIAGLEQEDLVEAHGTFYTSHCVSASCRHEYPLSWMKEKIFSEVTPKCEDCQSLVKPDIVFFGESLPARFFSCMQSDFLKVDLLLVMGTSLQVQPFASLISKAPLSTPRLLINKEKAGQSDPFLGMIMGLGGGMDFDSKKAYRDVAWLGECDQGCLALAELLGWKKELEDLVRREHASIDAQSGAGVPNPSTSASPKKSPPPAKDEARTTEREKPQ
Protocol: The continuous assay for comparing isoform specificity of S2P04 was performed using the universal fluorogenic sirtuin substrate described by Schuster et al.[41]. Briefly, the inhibition reactions were performed in 50-µL volumes at 37 °C in black, half-area, 96-well plates. The sirtuin enzyme (0.25 µM) was preincubated with different concentrations of the peptide S2P04 (0.0064–50 µM for SIRT1 and SIRT2, 0.5–100 µM for SIRT3) or TB (0.16–150 µM for SIRT1–SIRT3), and 1 mM NAD^+ in assay buffer (20 mM Tris, pH 7.8, 150 mM NaCl, 5 mM MgCl2, and 1 mM DTT) for 15 min. Following incubation, the reaction started with the addition of the fluorogenic substrate (5 µM), and product formation was monitored by measuring the fluorescence intensity every 20 s for 5 min (SIRT2) or 30 min (SIRT1 and SIRT3) in a BioTek Synergy H1 microplate reader at λex = 320 nm and λem = 408 nm (gain = 130 and read height = 7 mm). Initial rates of product formation were determined by a linear regression of the plot of fluorescence intensity vs. time and normalized relative to 0% (max inhibitor) and 100% (no inhibitor) controls. The assay was repeated to determine the IC50 values of all BuK peptides for SIRT2. IC50 values were determined by nonlinear regression of the plot of the normalized initial rate vs. inhibitor concentration using GraphPad Prism. The determined IC50 values are provided in Supplementary Table 2, and inhibition curves can be seen in Supplementary Fig. 20.

[2] = biological target: T1, SIRT2; test: SIRT2 inhibition assay for thiomyristoyl peptides; assay type: biochemical
Protocol: Assays were performed in 40-µL volumes at 37 °C in black, 384-well plates. […] Following incubation, the reaction started with the addition of the fluorogenic substrate (5 µM), and product formation was monitored by measuring the fluorescence intensity every 20 s for 5 min (SIRT2) in a BioTek Synergy H1 microplate reader at λex = 320 nm and λem = 408 nm (gain = 130 and read height = 7 mm). Initial rates were determined using the plot of fluorescence vs. time for linear portions of each curve. IC50 values were then determined using GraphPad Prism to fit a nonlinear regression to the normalized rates vs. inhibitor concentration.

SMILES	IC50 [1] [µM]	activity at 0.0064 µM ([1]; inhibitor 0.0064 µM) [%]	%Activity, SIRT2 ([1]; inhibitor 0.0064 µM, 0.0064 µM)	activity at 0.032 µM ([1]; inhibitor 0.032 µM) [%]	%Activity, SIRT2 ([1]; inhibitor 0.032 µM, 0.032 µM) [%]	activity at 0.5 µM ([1]; inhibitor 0.5 µM) [%]	%Activity, SIRT2 ([1]; inhibitor 0.5 µM, 0.5 µM)	activity at 1 µM ([1]; inhibitor 1 µM) [%]	%Activity, SIRT2 ([1]; inhibitor 1 µM, 1 µM)	activity at 2 µM ([1]; inhibitor 2 µM) [%]	%Activity, SIRT2 ([1]; inhibitor 2 µM, 2 µM) [%]	%Activity, SIRT2 ([1]; inhibitor 4 µM, 4 µM)	%Activity, SIRT2 ([1]; inhibitor 50 µM, 50 µM)	also measured
CCCC(=S)NCCCC[C@H](NC(=O)[C@@H](NC(=O)[C@@H](NC(=O)[C@@H](N)CS)[C@@H](C)O)C(C)C)C(=O)N[C@H](C(N)=O)[C@@H](C)CC [S2P04-5-tBuK] (H-CTV[X1]I-NH2)	0.136 ± 0.029	101	119.97%	87.2	96.038	8.86	9.5933%	6.24	6.7307%	5	6.0395	-0.2382% and 0.3719%	0.8865%	activity at 50 µM ([1]; inhibitor 50 µM): 1.19%
CCCC(=S)NCCCC[C@H](NC(=O)[C@H](Cc1ccccc1)NC(=O)[C@@H](NC(=O)[C@@H](N)CS)[C@@H](C)O)C(=O)N[C@H](C(=O)N1CCC[C@H]1C(=O)N[C@H](C(N)=O)[C@@H](C)O)C(C)C [S2P07-tBuK] (H-CTF[X1]VPT-NH2)	0.101 ± 0.013	–	98.946% and 68.389%	87.5	67.907	9.45	9.1144%	6.71	5.6905%	4.93	4.4406	0.3859% and 2.3975%	0.4825% and -0.01509%	–
CCCCCCCCCCCCCC(=S)NCCCC[C@H](NC(=O)OCc1ccccc1)C(=O)Nc1ccccc1 [TM, reference compound]	–	–	–	–	–	–	–	–	–	–	–	–	–	activity at 0.000488281 µM ([2]; inhibitor 0.488281 nM): 101%; %Activity, SIRT2 ([2]; inhibitor 0.488281 nM, 0.000488281 µM): 98.9615%; activity at 0.000976562 µM ([2]; inhibitor 0.976562 nM): 72.4%; %Activity, SIRT2 ([2]; inhibitor 0.976562 nM, 0.000976562 µM): 83.3212% and 86.8904% and 88.3827%; activity at 0.00195312 µM ([2]; inhibitor 1.95312 nM): 90.7%; %Activity, SIRT2 ([2]; inhibitor 1.95312 nM, 0.00195312 µM): 86.75%; %Activity, SIRT2 ([2]; inhibitor 3.90625 nM, 0.00390625 µM): 101.659% and 86.3725% and 107.923%; %Activity, SIRT2 ([2]; inhibitor 7.8125 nM, 0.0078125 µM): 82.8428% and 60.4593% and 105.944% and 110.889%; activity at 0.015625 µM ([2]; inhibitor 15.625 nM): 83.3%; %Activity, SIRT2 ([2]; inhibitor 15.625 nM, 0.015625 µM): 84.6885%; activity at 0.0625 µM ([2]; inhibitor 62.5 nM): 60.2%; %Activity, SIRT2 ([2]; inhibitor 62.5 nM, 0.0625 µM): 43.9326%; activity at 0.125 µM ([2]; inhibitor 125 nM): 22.5%; %Activity, SIRT2 ([2]; inhibitor 125 nM, 0.125 µM): 19.1421%; activity at 0.25 µM ([2]; inhibitor 250 nM): 12.4%; %Activity, SIRT2 ([2]; inhibitor 250 nM, 0.25 µM): 20.6592%; %Activity, SIRT2 ([2]; inhibitor 500 nM, 0.5 µM): 1.575% and -2.11% and 0.5358%; activity at 1 µM ([2]; inhibitor 1000 nM): 5.56%; %Activity, SIRT2 ([2]; inhibitor 1000 nM, 1 µM): 5.083%
CCCCCCCCCCCCCC(=S)NCCCC[C@H](NC(=O)[C@@H](NC(=O)[C@@H](NC(=O)[C@H](CS)NC(=O)[C@@H](N)[C@@H](C)O)[C@@H](C)O)C(C)C)C(=O)N[C@H](C(=O)NCC(N)=O)[C@@H](C)CC [S2P04-tMyK] (H-TCTV[Lys(thiomyristoyl)]IG-NH2)	–	–	–	–	–	–	–	–	–	–	–	–	–	IC50 ([2]; 10 nM SIRT2, 15 min preincubation, 5 µM substrate, n = 2): 0.013 ± 0.004 µM; activity at 0.000466362 µM ([2]; inhibitor 0.466362 nM): 95.3%; %Activity, SIRT2 ([2]; inhibitor 0.466362 nM, 0.000466362 µM): 104.732%; activity at 0.000932724 µM ([2]; inhibitor 0.932724 nM): 97.9%; %Activity, SIRT2 ([2]; inhibitor 0.932724 nM, 0.000932724 µM): 100.382%; %Activity, SIRT2 ([2]; inhibitor 1.86545 nM, 0.00186545 µM): 87.5221% and 108.94%; %Activity, SIRT2 ([2]; inhibitor 3.7309 nM, 0.0037309 µM): 78.4292% and 108.338%; activity at 0.0074618 µM ([2]; inhibitor 7.4618 nM): 77.8%; %Activity, SIRT2 ([2]; inhibitor 7.4618 nM, 0.0074618 µM): 66.6253%; %Activity, SIRT2 ([2]; inhibitor 14.9236 nM, 0.0149236 µM): 48.6419% and 27.9749%; activity at 0.0596944 µM ([2]; inhibitor 59.6944 nM): 11%; %Activity, SIRT2 ([2]; inhibitor 59.6944 nM, 0.0596944 µM): 20.9299%; %Activity, SIRT2 ([2]; inhibitor 955.11 nM, 0.95511 µM): -1.089% and 1.089%
CCCC(=S)NCCCC[C@H](NC(=O)[C@@H](NC(=O)[C@@H](NC(=O)[C@@H](N)CC)[C@@H](C)O)C(C)C)C(=O)N[C@H](C(N)=O)[C@@H](C)CC [S2P04(Abu)-5-tBuK] (H-[Abu]TV[X1]I-NH2)	0.119 ± 0.003	–	–	–	–	10	–	6.61	–	4.66	–	–	–	%Activity, SIRT2 ([1]; inhibitor 0.0064 µM, listed as S2P04-5-Abu-tBu, 0.0064 µM): 97.908% and 63.307%; %Activity, SIRT2 ([1]; inhibitor 0.032 µM, listed as S2P04-5-Abu-tBu, 0.032 µM): 79.071% and 55.539%; %Activity, SIRT2 ([1]; inhibitor 0.5 µM, listed as S2P04-5-Abu-tBu, 0.5 µM): 11.559%; %Activity, SIRT2 ([1]; inhibitor 1 µM, listed as S2P04-5-Abu-tBu, 1 µM): 4.9054%; %Activity, SIRT2 ([1]; inhibitor 2 µM, listed as S2P04-5-Abu-tBu, 2 µM): 4.1695%; activity at 4 µM ([1]; inhibitor 4 µM): 3.95%; %Activity, SIRT2 ([1]; inhibitor 4 µM, listed as S2P04-5-Abu-tBu, 4 µM): 3.2715%; activity at 50 µM ([1]; inhibitor 50 µM): 1.5%; %Activity, SIRT2 ([1]; inhibitor 50 µM, listed as S2P04-5-Abu-tBu, 50 µM): 1.1019%
CCCC(=S)NCCCC[C@H](NC(=O)[C@@H](NC(=O)[C@@H](NC(=O)[C@H](CS)NC(C)=O)[C@@H](C)O)C(C)C)C(=O)N[C@H](C(N)=O)[C@@H](C)CC [Ac-S2P04-5-tBu] (Ac-CTV[X1]I-NH2)	0.191 ± 0.009	104	111.5%	89.7	105.63	12.5	12.664%	5.39	6.0395%	3.09	4.8945	3.4595%	-0.7428% and 1.396%	activity at 4 µM ([1]; inhibitor 4 µM): 3.78%
CCCC(=S)NCCCC[C@H](NC(=O)[C@@H](NC(=O)[C@@H](NC(=O)[C@@H](N)CS)[C@@H](C)O)C(C)C)C(=O)N[C@H](C(=O)N[C@@H](CO)C(=O)N[C@@H](CC(C)C)C(N)=O)[C@@H](C)O [S2P03-tBuK] (H-CTV[X1]TSL-NH2)	0.068 ± 0.005	98.4	108.62%	83.5	92.999	–	2.6542% and 5.9955%	–	1.6503% and 4.1115%	1.28	2.2764	-0.1595% and 1.9208%	2.8758% and -0.3176%	–
